What was measured:
SHP-1 = biological target: T1, SHP-1 (Mus musculus, UniProt P29351); test: In vitro PTPase assay, GST/SHP-1; assay type: biochemical; conditions: for inhibitory activity against SHP-1: 3-4 μg/ml or 10-100 μg/ml
T1 construct: made in house
Experimental: In vitro PTPase activities were measured using the commercial protein tyrosine phosphatase assay kit (Upstate Biotechnology, Inc. (“UBI”)) following established procedure known to one of skill in the art. […] Briefly, 0.01 µg of GST/PTPase fusion proteins was incubated in 50 µl of Tris buffer (10 mM Tris, pH 7.4) containing different concentrations of inhibitors or chemicals (0-1,000 µg/ml) at 22° […] 100 µl of Malachite Green solution was added and incubated for 5 minutes, and the absorbance at 660 nm was measured after 5 minutes.
To assess the reversibility of inhibition of SHP-1 by PTPase inhibitors, GST/SHP-1 fusion protein bound on glutathione beads were pre-incubated in cold Tris buffer or Tris buffer containing the PTPase inhibitors at 4° C. for 30 minutes. The beads were then either subjected to in vitro PTPase assays or washed 3 times in Tris buffer then subjected to in vitro PTPase assays.
Briefly, individual PTPases (0.1 µg/reaction) in 50 µL of PTPase buffer (50 mM Tris, pH 7.4) were incubated at 22° C. for 10 minutes or as indicated in the absence or presence of inhibitory compounds. Substrates (0.2 mM phosphotyrosine peptide) were then added and allowed to react at 22° C. for 18 hrs. PTPase activity of individual reactions was measured by adding 100 µL of malachite green solution (UBI) and then quantifying the amounts of free phosphate cleaved by the PTPase from the peptide substrate by spectrometry (OD660 nm). […] Relative PTPase activities were calculated based on the formula: (PTPase activity in the presence of an inhibitory compound/PTPase activity in the absence of the compound)× 100%. To assess the reversibility of PTPase inhibition, GST fusion proteins of the PTPases bound on glutathione beads (Pharmacia) were pre-incubated with cold Tris buffer (50 mM Tris, pH 7.0) or Tris buffer containing the inhibitor at 4° C. for 30 minutes. The beads were then washed three times in cold Tris buffer or not washed prior to subjecting to in vitro PTPase assays.

WM9 cells = test: WM9 melanoma cell growth, MTT assay; assay type: cell-based, human; conditions: for effect on IFN-induced growth inhibition of WM9 cells: pentamidine 0.625-1.25 μg/ml, ketoconazole 40 μg/ml, sodium stibogluconate 12.5-50 μg/ml
Experimental: For cell proliferation assays, cells were grown in 10% FCS culture medium containing various amounts of IFNs and/or sodium stibogluconate in 96 well plates and cultured at 37° C. for 3 or 6 days as indicated. The numbers of viable cells in proliferation assays were determined by MTT assays as described in Phatak et al., J. Immunol. 167, 3391 (2001).
Dose response curves were generated for each drug alone, and also the combinations. Median effect plots were generated for IFNs alone, sodium stibogluconate alone, and the combination. The combination index (CI) was determined and plotted vs. fraction affected (FA). Data were analyzed in both modes, mutually exclusive and mutually nonexclusive. The interaction between two mutually nonexclusive drugs is described by the Equation CI=D1/Dx1+D2/Dx2+D1D2/Dx1Dx2, where Dx1 and Dx2 are the doses of drug 1 and drug 2 that are required to inhibit growth x %. […] When CI<1, drugs are synergistic, when CI=1, drugs are additive, and when CI>1, drugs are antagonistic.
Renca (Murphy, G. P., and W. J. Hrushesky. 1973. A murine renal cell carcinoma. J Natl Cancer Inst 50:1013), Jurkat (Gillis, S., and J. Watson. 1980. Biochemical and biological characterization of lymphocyte regulatory molecules. V. Identification of an interleukin 2-producing human leukemia T cell line. J Exp Med 152:1709) and WM9 (Forsberg, K., 1. Valyi-Nagy, C. H. Heldin, M. Herlyn, and B. Westermark. 1993. Platelet-derived growth factor (PDGF) in oncogenesis: development of a vascular connective tissue stroma in xenotransplanted human melanoma producing PDGF-BB. Proc Natl Acad Sci USA 90:393) cell lines were obtained from a colleague at the Cleveland Clinic Foundation (CCF) and cultured in RPMI 1640 medium supplemented with 10% fetal calf serum (FCS). […] SSG has been described previously (Yi, T., M. K. Pathak, D. J. Lindner, M. E. Ketterer, C. Farver, and E. C. Borden. 2002. Anticancer activity of sodium stibogluconate in synergy with IFNs. J Immunol 169:5978).

inhibitory activity against SHP-1 (SHP-1)	SMILES	activity against WM9 cells (WM9 cells; 0.625-20 μg/ml, single agent or with IFN-alpha)	inhibition at 40 µg/mL (WM9 cells; Homo sapiens, WM9, 40 μg/ml, single agent) [%]	effect on IFN-induced growth inhibition of WM9 cells (WM9 cells)	growth inhibition of WM9 cells (WM9 cells; pentamidine 2.5-5 μg/ml, single agent, 6 days)	activity against recombinant SHP-1 (SHP-1; HPLC fractions, parental mixture at Sb 10 μg/ml)	dephosphorylation of pNPP by these PTPases (SHP-1; pNPP substrate, SHP-1, SHP-2 and PTP1B)	inhibition of GST/SHP-1 after washing (reversibility) (SHP-1; pre-incubated with inhibitor, beads washed)	growth of WM9 melanoma cells (WM9 cells; SSG 6.25-200 μg/ml, 6 days)	WM9 cells in day 6 culture (WM9 cells; single agent, 50 μg/ml and 100 μg/ml)
no obvious inhibitory activity	CC(=O)N1CCN(c2ccc(OCC3COC(Cn4ccnc4)(c4ccc(Cl)cc4Cl)O3)cc2)CC1 (stereo not shown) [ketoconazole]	no apparent activity	67	minor augmenting effect	–	–	–	–	–	–
no obvious inhibitory activity	N=C(N)c1ccc(OCCCCCOc2ccc(C(=N)N)cc2)cc1 [pentamidine]	–	–	augmented IFN-alpha-induced growth inhibition	86-97%	–	–	–	–	–
–	O.O.O.O.O.O.O.O.O.O=C([O-])[C@@H]1[O][Sb]2([O-])([O][Sb]34([OH])[O][C@H]([C@H](O)CO)[C@H]([O]3)[C@H](C(=O)[O-])[O]4)[O][C@H]([C@H](O)CO)[C@@H]1[O]2.[Na+].[Na+].[Na+] [sodium stibogluconate]	–	–	greatly enhanced	–	inactivated SHP-1	similarly inhibited	not affected by washing	inhibited by SSG in a dose-dependent manner	killed all cells

— patent US20080089860A1, “Therapeutic compositions and methods useful in treating cancer” (priority 2006, published 2008)
